Source: patent publication US7863446B2, “Heterocycles” (Orchid Research Laboratories Limited, priority 2006, dated 2011)

What was measured:
TNF-α = assay: In vitro measurement of TNF-α in human PBMC (LPS stimulated); format: cell-based; settings: for inhibition at 10 µM: read-out: TNF-α Inhibition (%) at Conc. (10 μM); for inhibition at 1 µM: NA = No activity, read-out: TNF-α Inhibition (%) at Conc. (1 μM)
Experimental: In Vitro Measurement of Tumor Necrosis Factor Alpha (TNF-α)
This assay determines the effect of test compounds on the production of TNF α in human Peripheral Blood Mononuclear Cells (PBMC). Compounds were tested for their ability to inhibit the activity of TNF α in human PBMC. PBMC were isolated from blood (of healthy volunteers) using BD Vacutainer CPT™ (Cell preparation tube, BD Bio Science) and suspended in RPMI medium (Physiol. Res. 52: 593-598, 2003). The test compounds were pre-incubated with PBMC (0.5 million/incubation well) for 15 minutes at 37° C. and then stimulated with Lipopolysaccharide (Escherichia coli: B4; 1 μg/ml) for 18 hours at 37° C. in 5% CO2. The levels of TNF-α in the cell culture medium were estimated using enzyme-linked immunosorbent assay performed in a 96 well format as per the procedure of the manufacturer (Cayman Chemical, Ann Arbor, USA).

IL-6 = assay: In vitro measurement of IL-6 in human PBMC (LPS stimulated); format: cell-based; settings: for inhibition at 1 µM: read-out: IL-6 Inhibition (%) Conc. (1 μM); for inhibition at 10 µM: read-out: IL-6 Inhibition (%) Conc. (10 μM)
Experimental: In Vitro Measurement of Interleukin-6(IL-6)
This assay determins the effect of test compounds on the production of IL-6 in human PBMC (Physiol. Res. 52: 593-598, 2003). Compounds were tested for their ability to inhibit the activity of IL-6 in human PBMC. PBMC were isolated from blood using BD Vacutainer CPT™ Cell preparation tube (BD Bio Science) and suspended in RPMI medium. The test compounds were pre-incubated with PBMC (0.5 million/incubation well) for 15 minutes at 37° C. and then stimulated with Lipopolysaccharide (Escherichia coli: B4; 1 μg/ml) for 18 hours at 37° C. in 5% CO2. The levels of IL-6 in cell culture medium were estimated using enzyme-linked immunosorbent assay performed in a 96 well format as per the procedure of the manufacturer (Cayman Chemical, Ann Arbor, USA).

[1] = target: T1, purified recombinant COX-2 (Homo sapiens, UniProt P35354); assay: COX-2 enzyme based assay; format: biochemical; settings: NA = No activity, read-out: % Inhibition in rEnzyme Assay COX-2
T1 sequence (P35354 18-604): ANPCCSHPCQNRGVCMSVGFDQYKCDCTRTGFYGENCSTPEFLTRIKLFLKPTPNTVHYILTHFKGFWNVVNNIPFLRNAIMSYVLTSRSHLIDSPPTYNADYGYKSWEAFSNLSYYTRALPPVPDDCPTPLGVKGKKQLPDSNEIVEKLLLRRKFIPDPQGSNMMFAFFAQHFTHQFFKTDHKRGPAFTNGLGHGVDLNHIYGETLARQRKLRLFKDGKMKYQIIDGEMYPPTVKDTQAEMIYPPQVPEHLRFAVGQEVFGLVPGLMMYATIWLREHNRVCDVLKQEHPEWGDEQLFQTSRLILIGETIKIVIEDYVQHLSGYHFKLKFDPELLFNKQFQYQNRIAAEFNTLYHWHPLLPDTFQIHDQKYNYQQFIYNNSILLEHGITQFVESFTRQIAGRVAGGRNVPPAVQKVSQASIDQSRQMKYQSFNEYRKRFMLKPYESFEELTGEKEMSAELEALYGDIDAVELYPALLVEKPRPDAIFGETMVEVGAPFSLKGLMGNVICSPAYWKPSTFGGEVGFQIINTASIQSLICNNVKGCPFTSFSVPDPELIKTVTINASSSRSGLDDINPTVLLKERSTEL
Experimental: (§1) COX-1 and COX-2 Enzyme Based Assay
(§2) COX-1 and COX-2 enzyme based assays were carried out to check the inhibitory potential of the test compounds on the production of prostaglandin by purified recombinant COX-1/COX-2 enzyme (Proc. Nat. Acad. Sci. USA, 88, 2692-2696, 1991; J. Clin. Immunoassay 15, 116-120, 1992) In this assay, the potential of the test compound to inhibit the production of prostaglandin either by COX-1 or COX-2 from arachidonic acid (substrate) was measured. This was an enzyme based in-vitro assay to evaluate selective COX inhibition with good reproducibility.
(§3) Arachidonic acid was converted to PGH2 (Intermediate product) by COX1/COX-2 in the presence or absence of the test compound. The reaction was carried out at 37° C. and after 2 minutes it was stopped by adding 1M HCl. Intermediate product PGH2 was converted to a stable prostanoid product PGF2αby SnCl2 reduction. The amount of PGF2α, produced in the reaction was inversely proportional to the COX inhibitory potential of the test compound. The prostanoid product was quantified via enzyme immunoassay (EIA) using a broadly specific antibody that binds to all the major forms of prostaglandin, using Cayman ELISA kit as per the procedure outlined by the manufacturer (Cayman Chemicals, Ann Arbor, USA).

[2] = target: purified recombinant COX-1 (Homo sapiens, UniProt P23219); assay: COX-1 enzyme based assay; format: biochemical; settings: NA = No activity, read-out: % Inhibition in rEnzyme Assay COX-1
Experimental: as §1, §2, §3

purified recombinant COX-1, sequence (P23219 24-599): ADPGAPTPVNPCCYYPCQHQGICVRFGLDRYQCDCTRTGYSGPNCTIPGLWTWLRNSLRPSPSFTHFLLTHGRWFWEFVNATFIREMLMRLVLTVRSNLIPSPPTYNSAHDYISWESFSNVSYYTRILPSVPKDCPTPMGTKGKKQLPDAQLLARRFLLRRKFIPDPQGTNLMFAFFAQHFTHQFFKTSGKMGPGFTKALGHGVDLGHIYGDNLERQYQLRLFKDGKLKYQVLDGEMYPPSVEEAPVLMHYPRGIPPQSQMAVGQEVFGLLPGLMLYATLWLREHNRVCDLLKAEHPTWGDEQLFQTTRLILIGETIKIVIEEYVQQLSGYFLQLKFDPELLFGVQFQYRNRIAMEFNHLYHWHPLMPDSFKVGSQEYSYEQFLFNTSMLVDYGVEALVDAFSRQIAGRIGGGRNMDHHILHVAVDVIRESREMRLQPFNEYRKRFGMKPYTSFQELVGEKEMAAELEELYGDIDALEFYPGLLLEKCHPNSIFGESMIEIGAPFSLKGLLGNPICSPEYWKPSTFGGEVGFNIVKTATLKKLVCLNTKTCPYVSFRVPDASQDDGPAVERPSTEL

CNS(=O)(=O)c1ccc(-c2c(-c3ccc(S(C)(=O)=O)cc3)nc(C(F)(F)F)nc2N2CCOCC2)cc1 [Example 34, 4-{4-(Morpholin-4yl)-6-[4-(methylsulfonyl)phenyl]-2-(trifluoromethyl)pyrimidin-5-yl}-N-methylbenzenesulfonamide]
inhibition at 10 µM (TNF-α): 80.9%

CS(=O)(=O)c1ccc(-c2nc(C(F)(F)F)nc(OS(=O)(=O)CCCCl)c2-c2ccccc2)cc1 [Example 19, 6-[4-(Methylsulfonyl)phenyl]-5-phenyl-2-(trifluoromethyl)pyrimidin-4-yl-3-chloropropane-1-sulfonate]
inhibition at 1 µM (IL-6): 27.9% | inhibition at 10 µM (IL-6): 41.9%

CS(=O)(=O)c1ccc(-c2nc(C(F)(F)F)nc(OS(=O)(=O)c3ccc(F)cc3)c2-c2ccccc2)cc1 [Example 26, 6-[4-(Methylsulfonyl)phenyl]-5-phenyl-2-(trifluoromethyl)pyrimidin-4-yl-4-fluorobenzenesulfonate]
inhibition at 1 µM (TNF-α): 32.7% | inhibition at 10 µM (TNF-α): 50.8%

COc1cc(N2CCN(c3nc(C(F)(F)F)nc(-c4ccc(F)cc4)c3-c3cccc(S(N)(=O)=O)c3)CC2)nc(OC)n1 [Example 66, 4-[4-(2,6-Dimethoxypyrimidin-4-yl)piperazin-1-yl]-5-(3-aminosulfonylphenyl)-6-(4-fluorophenyl)-2-(trifluoromethyl)pyrimidine]
inhibition at 1 µM (TNF-α): 57.9% | inhibition at 10 µM (TNF-α): 80.7%

CC(=O)Nc1ccc(N2CCN(c3nc(C(F)(F)F)nc(-c4ccc(S(C)(=O)=O)cc4)c3-c3ccc(F)cc3)CC2)nc1 [Example 119, 4-[5-(Acetylamino)pyridin-2-yl]piperazin-1-yl-5-(4-fluorophenyl)-6-[4-(methylsulfonyl)phenyl]-2-(trifluoromethyl)pyrimidine]
inhibition at 1 µM (TNF-α): 88.9% | inhibition at 10 µM (TNF-α): 91.5%

NS(=O)(=O)c1cccc(-c2c(-c3ccccc3)nc(C(F)(F)F)nc2N2CCN(c3ccc([N+](=O)[O-])cn3)CC2)c1 [Example 117, 3-[6-{4-[5-(Nitro)pyridin-2-yl]piperazin-1-yl}-4-phenyl-2-(trifluoromethyl)pyrimidin-5-yl]benzenesulfonamide]
inhibition at 1 µM (TNF-α): 69.7% | inhibition at 10 µM (TNF-α): 86.5%

CCOC(=O)C1CCN(c2nc(C(F)(F)F)nc(-c3ccccc3)c2-c2cccc(S(N)(=O)=O)c2)CC1 [Example 61, Ethyl 1-[6-phenyl-5-(3-aminosulfonylphenyl)1-2-(trifluoromethyl)pyrimidin-4-yl]piperidine-4-carboxylate]
inhibition at 1 µM (IL-6): 24.5% | inhibition at 10 µM (IL-6): 54.5%

CCOC(=O)C1CCN(c2nc(C(F)(F)F)nc(-c3ccc(F)cc3)c2-c2cccc(S(N)(=O)=O)c2)CC1 [Example 59, Ethyl-1-[5-(3-aminosulfonylphenyl)-6-(4-fluorophenyl)-2-(trifluoromethyl)pyrimidin-4-yl]piperidine-4-carboxylate]
inhibition at 1 µM (IL-6): 26.1% | inhibition at 10 µM (IL-6): 36.8%

NNc1nc(C(F)(F)F)nc(-c2ccncc2)c1-c1ccccc1 [Example 12, 4-Hydrazino-5-phenyl-6-pyridin-4-yl-2-(trifluoromethyl)pyrimidine]
inhibition at 1 µM (TNF-α): 34.8% | inhibition at 10 µM (TNF-α): 78.4%

CS(=O)(=O)N1CCN(c2nc(C(F)(F)F)nc(-c3ccc(F)cc3)c2-c2cccc(S(N)(=O)=O)c2)CC1 [Example 78, 3-[4-[4-(Methylsulfonyl)piperazin-1-yl]-6-(4-fluorophenyl)-2-(trifluoromethyl)pyrmidin-5-yl]benzenesulfonamide]
inhibition at 1 µM (IL-6): 22.3% | inhibition at 10 µM (IL-6): 25.3%

CS(=O)(=O)c1ccc(-c2nc(C(F)(F)F)nc(OS(=O)(=O)c3ccc(OC(F)(F)F)cc3)c2-c2ccccc2)cc1 [Example 24, 6-[4-(Methylsulfonyl)phenyl]-5-phenyl-2-(trifluoromethyl)pyrimidin-4-yl-4-trifluoromethoxybenzenesulfonate]
inhibition at 1 µM (TNF-α): 53.9% | inhibition at 10 µM (TNF-α): 32.9%

NNc1nc(C(F)(F)F)nc(-c2cccnc2)c1-c1ccccc1 [Example 11, 4-Hydrazino-5-phenyl-6-pyridin-3-yl-2-(trifluoromethyl)pyrimidine]
inhibition at 1 µM (TNF-α): 12.7% | inhibition at 10 µM (TNF-α): 50.7%

CS(=O)(=O)c1ccc(-c2nc(C(F)(F)F)nc(OS(=O)(=O)c3ccccc3F)c2-c2ccccc2)cc1 [Example 27, 6-[4-(Methylsulfonyl)phenyl]-5-phenyl-2-(trifluoromethyl)pyrimidin-4-yl-2-fluorobenzenesulfonate]
inhibition at 1 µM (TNF-α): 43.5% | inhibition at 10 µM (TNF-α): 51.9%

NNc1nc(C(F)(F)F)nc(-c2ccncc2)c1-c1ccc(F)cc1 [Example 13, 5-(4-Fluorophenyl)-4-hydrazino-6-pyridin-4-yl-2-(trifluoromethyl)pyrimidine]
inhibition at 1 µM (TNF-α): 25.8% | inhibition at 10 µM (TNF-α): 35.3%

NS(=O)(=O)c1ccc(-c2nc(C(F)(F)F)nc(N3CCNCC3)c2-c2ccc(F)cc2)cc1 [Example 31, 4-[5-(4-Fluorophenyl)-6-piperazin-1-yl-2-(trifluoromethyl)pyrimidin-4-yl]benzenesulfonamide]
inhibition at 1 µM (TNF-α): 37.4% | inhibition at 10 µM (TNF-α): 62.5%

NS(=O)(=O)c1cccc(-c2c(-c3ccccc3)nc(C(F)(F)F)nc2N2CCN(c3ccccn3)CC2)c1 [Example 58]
inhibition at 1 µM ([1]; 1 μM): 11.2% | inhibition at 10 µM ([1]; 10 μM): 2.62% | inhibition at 1 µM ([2]; 1 μM): 10.2% | inhibition at 10 µM ([2]; 10 μM): 9.59%

CS(=O)(=O)c1ccc(-c2nc(C(F)(F)F)nc(OS(=O)(=O)c3cccs3)c2-c2ccccc2)cc1 [Example 25, 6-[4-(Methylsulfonyl)phenyl]-5-phenyl-2-(trifluoromethyl)pyrimidin-4-yl thiophene-2-sulfonate]
inhibition at 1 µM (TNF-α): 38.8% | inhibition at 10 µM (TNF-α): 94%

Cc1cnc(C(=O)N2CCN(c3nc(C(F)(F)F)nc(-c4ccc(S(C)(=O)=O)cc4)c3-c3ccccc3)CC2)cn1 [Example 36, 4-[4-(Methylsulfonyl)phenyl]-6-{4-[(5-methylpyrazin-2-yl)carbonyl]piperazin-1-yl}-5-phenyl-2-(trifluoromethyl)pyrimidine]
inhibition at 1 µM (TNF-α): 51.3% | inhibition at 10 µM (TNF-α): 26.9%
